25 molecules from ChEMBL document CHEMBL1201862, “PubChem BioAssay data set” (2004) can be followed below.

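Cells were grown in 96-well plates and exposed to each compound for 48 hours at five concentrations; endpoints were interpolated linearly between bracketing concentrations, or set to the highest concentration if not reached. Here, GI50 denotes the concentration required for 50% inhibition of growth.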 The source made the active and inactive calls. Rule as the data show it: active = GI50 up to about 1.1 µM and inactive = higher.

Test in all cases: NCI anticancer screen, dose series, 48 h
The subject of experiment [1] is KM-20L2.
Experiment [2] relates to M19-MEL.
For experiment [3], the system named is LXFL 529.
Experiment [4] concerns XF498.
Experiment [5] concerns DMS-273.
In experiment [6] the test system is DLD-1.
For experiment [7], the system named is SNB-78.
Experiment [8] has as its system HOP-18.
In experiment [9] the test system is RXF 631.

Take `CS(=O)(=O)NNS(=O)(=O)c1ccccc1`: the GI50 in [1], in experiment [2], in experiment [3], in experiment [4], in experiment [5] and in [6] was > 100 µM (inactive) each time.
Regarding `COc1cccc(C2N3CCCCC3[C@@H]3c4[nH]c5ccccc5c4CCN23)c1OC` (stereo partly specified), the GI50 in [1] was 14.3 µM (inactive); in experiment [2], 15.9 µM (inactive); in [3] it was 15.2 µM (inactive); in [7], 15.7 µM (inactive); in experiment [4] it was 15.2 µM (inactive); in experiment [8], 17 µM (inactive). Also, the values for the GI50 in [5], in experiment [9] and in experiment [6] were 16 µM (inactive), 16.4 µM (inactive) and 16.9 µM (inactive), respectively.
In the case of `CC/C(=N/O)c1ccc2[nH]c3c(C)cc([N+](=O)[O-])c(C)c3c2c1`, the GI50 in experiment [2] was 50.2 µM (inactive); in [7], > 100 µM (inactive); in [4], 50.2 µM (inactive); in [8] it was > 100 µM (inactive); in [5] it was 19.4 µM (inactive); in experiment [6], 16.2 µM (inactive).
With `CC1(C)C(=NNC(=S)NN)C(C)(C)C1=NNC(=S)NN`, the GI50 in experiment [1], in experiment [2], in [4], in experiment [9] and in experiment [6] was > 100 µM (inactive) each time.
On to `CN[C@@H](C)[C@@H](N)c1ccccc1`, for which the GI50 in experiment [3], in [7], in experiment [8], in experiment [5], in [9] and in experiment [6] was > 100 µM (inactive) each time.
For the molecule `O=C(NOC(=O)c1ccc([N+](=O)[O-])cc1)c1ccc(Cl)cc1`, the GI50 is 97.1 µM (inactive) in experiment [1]; > 100 µM (inactive) in experiment [2]; 17.9 µM (inactive) in [3]; 16.6 µM (inactive) in experiment [7]; 85.9 µM (inactive) in [4]; 2.9 µM (inactive) in experiment [8]. Moreover, the GI50 was > 100 µM (inactive) in experiment [9] and 38.7 µM (inactive) in experiment [6].
`Cc1cc2c(C=O)n[nH]c2c(C#N)c1C`: the GI50 in experiment [1] was 65.9 µM (inactive); in [2], 60.8 µM (inactive); in experiment [3], 34.7 µM (inactive); in experiment [7], 95.3 µM (inactive); in experiment [5], 43.1 µM (inactive); in experiment [9], 58.5 µM (inactive). Also, the GI50 in experiment [6] was > 100 µM (inactive).
Turning to `Nc1ccc2nc(NCc3ccc(F)cc3)cnc2c1`, the GI50 in experiment [1] is > 100 µM (inactive); in experiment [3], > 100 µM (inactive); in [7] it was 75.7 µM (inactive); in experiment [4] it was > 100 µM (inactive); in experiment [5] it was > 100 µM (inactive).
`CC1=C(C(=O)Nc2ccccc2C)C(c2ccccc2O)C(C(=O)Nc2ccccc2C)=C(C)N1`: the GI50 in experiment [1] is 20.2 µM (inactive); in experiment [2], 21 µM (inactive); in experiment [3], 20.1 µM (inactive); in experiment [7] it was 29.5 µM (inactive); in [4], 22.3 µM (inactive); in experiment [8], 17.9 µM (inactive). Further, the GI50 in [5] is 17.7 µM (inactive); in experiment [6] it was 16.8 µM (inactive).
For the molecule `CCOC(=O)NC1C2CC(=O)OC(O2)C1OC(C)=O` (stereo unspecified), the GI50 in experiment [1], in experiment [2], in experiment [3], in experiment [7], in experiment [8] and in [5] was > 100 µM (inactive) throughout. The figures for the GI50 in experiment [9] and in experiment [6] were > 100 µM (inactive) and 90.6 µM (inactive), respectively.
On to `Cc1c2nc3ccccc3sc-2cc(=O)c1C`, for which the GI50 is > 72.6 µM (inactive) in experiment [1]; 15.8 µM (inactive) in [2]; 41 µM (inactive) in experiment [3]; > 24.3 µM (inactive) in [7]; 28.4 µM (inactive) in experiment [4]; > 100 µM (inactive) in experiment [8]. Also, the GI50 in experiment [5] is 50.6 µM (inactive); in experiment [6], 12.7 µM (inactive).
Turning to `CCOC(=O)COc1cccc2c1C(=O)CCO2`, the GI50 in experiment [1], in experiment [2], in [3], in experiment [7], in experiment [4] and in experiment [5] was > 100 µM (inactive) in each case. In addition, the GI50 in [9] and in experiment [6] was > 100 µM (inactive) throughout.
Take `Clc1ccc(-c2c(C3=NCCN3)nnn2-c2ccc(Cl)cc2)cc1`: the GI50 in [1] was 15.7 µM (inactive); in [2] it was 16.6 µM (inactive); in [3], 29.4 µM (inactive); in experiment [7], 18.8 µM (inactive); in experiment [4] it was 15 µM (inactive); in experiment [8] it was > 100 µM (inactive). In addition, the GI50 was 42.2 µM (inactive) in experiment [5] and 27.9 µM (inactive) in experiment [6].
As for `N#CC(Sc1ccccc1)C(N)=O` (stereo unspecified), the GI50 in [1], in experiment [2], in [3], in [7], in [4] and in experiment [8] was > 100 µM (inactive) in each case. For the same molecule, the GI50 in experiment [5], in [9] and in [6] was > 100 µM (inactive) each time.
With `CCOC(=O)/C(=C/c1ccc(C(=O)OC)cc1)N(CC)CC`, the GI50 is 31.2 µM (inactive) in experiment [1], 51.1 µM (inactive) in [2], 50.6 µM (inactive) in [3] and 24.4 µM (inactive) in experiment [7].
In the case of `O=C(O)/C(=C\c1ccccc1Cl)S(=O)(=O)c1ccccc1`, the GI50 in experiment [1], in [2], in experiment [3], in experiment [7], in experiment [8] and in experiment [5] was > 100 µM (inactive) each time. In addition, the GI50 in [9] and in [6] was > 100 µM (inactive) throughout.
With `O=C(CCc1cc(-c2ccccc2)[nH]c(=S)n1)Nc1ccccc1[N+](=O)[O-]`, the GI50 is > 100 µM (inactive) in [1]; > 100 µM (inactive) in [2]; > 100 µM (inactive) in experiment [3]; > 100 µM (inactive) in [7]; 42 µM (inactive) in experiment [4]; > 100 µM (inactive) in [8]. Also, the GI50 in experiment [5] and in experiment [9] was > 100 µM (inactive) in each case.
On to `CC(C)(C)OC(=O)N[C@H]1CC2(C=C(Cl)C(=O)C(Cl)=C2)OC1=O`, for which the GI50 in experiment [1] is 20.4 µM (inactive); in [2] it was 17.1 µM (inactive); in [3], 11.4 µM (inactive); in experiment [7], 19.6 µM (inactive); in experiment [4] it was 19.3 µM (inactive); in experiment [8], 16.5 µM (inactive). Moreover, the GI50 in [5] is 18.2 µM (inactive); in [9], 16.6 µM (inactive); in [6], 3.66 µM (inactive).
`Nc1ncnc2c1ncn2C1OC(CSC(F)(F)F)C(O)C1O` (stereo unspecified): the GI50 in [1], in experiment [2], in experiment [3], in experiment [7], in experiment [8] and in [5] was > 100 µM (inactive) throughout. In addition, the GI50 in [6] was > 100 µM (inactive).
On to `O=C(CC(=O)c1cccc([N+](=O)[O-])c1)C(=O)Nc1ccccc1`, for which the GI50 in experiment [1], in experiment [2], in experiment [3], in experiment [7], in experiment [4] and in experiment [8] was > 100 µM (inactive) in each case. Moreover, the GI50 in [5], in experiment [9] and in experiment [6] was > 100 µM (inactive) each time.
As for `C[Si](C)(C)/C(Br)=C\CCN1C(=O)CCC1=O`, the GI50 in experiment [1], in [2], in [3], in [7], in experiment [4] and in experiment [8] was > 100 µM (inactive) throughout. The GI50 in experiment [5], in experiment [9] and in experiment [6] was > 100 µM (inactive) throughout.
As for `COc1cccc(-c2cc(O)c3cc4c(cc3n2)OCO4)c1`, the GI50 in [1] was 0.19 µM (active); in experiment [2] it was 0.128 µM (active); in [3], 0.0598 µM (active); in experiment [7] it was 0.195 µM (active); in experiment [4], 0.042 µM (active); in experiment [8] it was 0.638 µM (active). For the same molecule, the GI50 in experiment [5] was 0.147 µM (active); in experiment [9], 0.442 µM (active); in experiment [6], 0.126 µM (active).
For `CCN(CC)CCOc1ccc(C(O)(Cc2ccc(OC)cc2)c2ccccc2)cc1` (stereo unspecified), the GI50 was 3.24 µM (inactive) in experiment [1]; 15.4 µM (inactive) in experiment [2]; 17 µM (inactive) in [3]; 24.5 µM (inactive) in experiment [7]; 14 µM (inactive) in experiment [4]; 14.3 µM (inactive) in [5]. For the same molecule, the GI50 in experiment [6] was 18.3 µM (inactive).
Turning to `O=C(O)/C=C/c1ccc(O)c(O)c1` [CAFFEIC ACID], the GI50 in experiment [1], in experiment [2], in [3], in experiment [7], in experiment [8] and in [5] was > 100 µM (inactive) throughout. The GI50 in experiment [9] and in experiment [6] was > 100 µM (inactive) in each case.
Take `C/C(=C\Cc1cc(O)ccc1O)CCc1c(C)c(O)c(O)c(C=O)c1C` [PANICEIN C]: the GI50 in experiment [1] was 37.5 µM (inactive); in experiment [2] it was 17.7 µM (inactive); in [3], 9.64 µM (inactive); in [4], 20 µM (inactive); in [8] it was 18.7 µM (inactive); in [5] it was 27.5 µM (inactive). Moreover, in experiment [6], the GI50 was 21.1 µM (inactive).
